Test in all cases: DTP human tumour cell line panel, 48 h
The test system of assay [1] is SK-MEL-28 melanoma.
In assay [2] the test system is SK-OV-3 ovarian.
In assay [3] the test system is A549 NSCLC.
The subject of assay [4] is KM12 colon.
Assay [5] has as its system RPMI-8226 leukemia.
The test system of assay [6] is BT-549 breast.
The subject of assay [7] is UACC-257 melanoma.
Assay [8] deals with 786-0 renal.
Assay [9] relates to IGROV1 ovarian.
The subject of assay [10] is NCI-H226 lung.

Broadly, the GI50 is the concentration at which growth is held to half of that of the control. What is called TGI is the concentration giving total growth inhibition. Read a high TGI as less potent growth arrest.

Where “and” joins values, the source holds several entries; their conditions need not be identical. Equal values may be shown once.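 Five compound concentrations were applied to cells in 96-well plates for 48 hours; endpoints were derived by simple linear interpolation of the resulting dose-response curve. At the GI50, growth is halved. TGI denotes the concentration required for complete inhibition of growth.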

On to `COc1cccc(/C=C/[N+](=O)[O-])c1`, for which the GI50 in [1] is 2.39 µM; in assay [2], 11.5 µM; in [3] it was 5.06 µM; in [4], 2.54 µM; in assay [5], 1.78 µM; in assay [6] it was 1.86 µM. The GI50 in assay [7] is 3.19 µM; in [8], 1.9 µM; in assay [9], 2.4 µM; in assay [10], 26.2 µM. Moreover, the concentration for total growth inhibition (TGI) in [1] was determined as 6.28 µM; in [2] it was 23.6 µM; in [3], 25.4 µM; in assay [4], 7.35 µM; in [5], 4.54 µM; in assay [6], 3.99 µM. Moreover, the TGI was 11.6 µM in assay [7], 4.06 µM in assay [8], 6.51 µM in assay [9] and 65.3 µM in assay [10].
On to `O=C(O)c1ccc(Oc2nccc(-c3c(-c4ccc(F)cc4)ncn3C3CCNCC3)n2)cc1`, for which the GI50 in assay [1], in assay [2], in assay [3], in [4], in [5] and in assay [6] was more than 25 µM each time. The GI50 in [8] and in assay [9] was more than 25 µM throughout. Moreover, the TGI in assay [1], in assay [2], in assay [3], in assay [4], in assay [5] and in assay [6] was more than 25 µM throughout. The TGI in assay [8] and in assay [9] was more than 25 µM in each case.
Take `CNC/C(Cl)=N/S(=O)(=O)c1ccc(C)cc1`: the TGI was more than 100 µM in assay [1]; 56.6 µM in assay [2]; 51.4 µM in assay [3]; 27.7 µM in [4]; 33.5 µM in assay [5]; 51.7 µM in [6]. The TGI in assay [7] was 25.4 µM; in assay [8], 25.2 µM; in assay [9] it was 91.2 µM; in assay [10], 59.5 µM.
As to `CCOC(=O)NC1C2CC(=O)OC(O2)C1OC(C)=O` (stereo not drawn), the total growth inhibition concentration (TGI) in [1], in assay [2], in assay [3], in [4], in assay [5] and in [6] was more than 100 µM throughout. The total growth inhibition concentration (TGI) in assay [7], in assay [8] and in assay [9] was more than 100 µM throughout. Moreover, the GI50 in assay [6] was more than 100 µM.
Take `N#CC1=C(N)Oc2c(ccc3ccccc23)C1c1ccccc1` (stereo not drawn): the GI50 in assay [1] is 0.944 µM; in [2], 0.0796 µM; in [3], 0.0845 µM; in assay [4], 0.0419 µM; in [5], 0.0417 µM; in assay [6], 0.0821 µM. Besides, the GI50 is 11.9 µM in [7], 0.0503 µM in assay [8], 0.0654 µM in assay [9] and 0.463 µM in [10]. In addition, the TGI in assay [1] came out at 20.5 µM; in [2] it was 19 µM; in assay [3], 18.3 µM; in assay [4], 13.5 µM; in assay [5], 15 µM; in assay [6], 3.4 µM. The TGI in assay [7] was 29.9 µM; in [8], 13 µM; in [9] it was 16.9 µM; in assay [10] it was 19.4 µM.
Take `O=C1NC(=O)C(c2ccccc2Cl)=C1Nc1cc(Cl)c(O)c(Cl)c1`: the GI50 in assay [1] is more than 14.6 µM; in [2] it was 16.3 µM; in assay [3], more than 25 µM; in assay [4], 12 µM; in assay [5], more than 19.4 µM; in assay [6] it was 16.7 µM. Also, the GI50 is 23.7 µM in assay [8] and more than 25 µM in assay [9]. In addition, the TGI in assay [1], in assay [2], in assay [3], in assay [4], in assay [5] and in assay [6] was more than 25 µM throughout. Also, the TGI in [8] and in assay [9] was more than 25 µM in each case.
Regarding `C[C@]12CC[C@H](OC3OC(CO)C(O)C(O)C3O)C[C@H]1CC[C@@H]1[C@@H]2CC[C@]2(C)[C@@H](C3=CCOC3=O)CC[C@]12O` (stereo partly drawn), the GI50 in [1] is more than 100 µM; in [2] it was more than 100 µM; in [3], > 100 µM and 84.5 µM; in [4], more than 100 µM; in [7], 21.9 µM and > 100 µM; in [8], 15.4 µM. Besides, in [9], the GI50 was more than 100 µM. The TGI in [1] was 50 µM and > 100 µM; in [2], more than 100 µM; in [3], 50 µM and > 100 µM; in assay [4] it was 50 µM and > 100 µM; in [5] it was 19.5 µM and > 100 µM; in assay [6] it was more than 100 µM. Further, the TGI in assay [7] is 50 µM and > 100 µM; in assay [8], more than 100 µM; in assay [9], 50 µM and > 100 µM; in assay [10], 26.4 µM and > 100 µM.
`c1cc(N2CCCN(c3ccc(C4=NCCCN4)cc3)CC2)ccc1C1=NCCCN1`: the GI50 in [1] was more than 100 µM; in assay [3], 59.6 µM; in assay [4], more than 100 µM; in assay [5], more than 100 µM; in [6], more than 100 µM; in assay [7], more than 100 µM. In addition, the GI50 in assay [8], in assay [9] and in assay [10] was more than 100 µM throughout. Besides, the TGI in assay [1], in [3], in assay [4], in [5], in assay [6] and in assay [7] was more than 100 µM throughout. Also, the TGI in assay [8], in assay [9] and in assay [10] was more than 100 µM throughout.
For the compound `CC1=C(C(=O)Nc2ccc(Cl)c(Cl)c2)C(c2cccc(Cl)c2)NC(=O)N1` (stereo not drawn), the GI50 in assay [2] was 10.6 µM; in assay [3] it was 17.3 µM; in assay [4] it was 0.239 µM; in assay [5], more than 17 µM; in assay [6], 6.42 µM; in [7], 12.2 µM. The values for the GI50 in [8], in assay [9] and in assay [10] were 10.2 µM, 7.51 µM and 7.69 µM, respectively. Besides, the TGI in [2] was 20.7 µM; in assay [3], more than 50 µM; in [4], 2.48 µM; in [5], more than 30.1 µM; in [6] it was 13.4 µM; in assay [7] it was 25.6 µM. Further, the TGI in assay [8] worked out at 28.3 µM; in [9] it was 21.6 µM; in assay [10], 18.6 µM.
In the case of `COc1cc(Nc2nc3ccccc3nc2NS(=O)(=O)c2ccc(NC(=O)c3ccc(C)c(OC)c3)cc2)cc(OC)c1`, the GI50 in [3] is 4.38 µM and 13.3 µM and 1.79 µM; in [4] it was 3.62 µM and 20 µM and 2.35 µM; in [5] it was 3.98 µM and 12.3 µM and 1.96 µM. For the same compound, the TGI was > 100 µM and 80.4 µM and > 9.12 µM in [3]; more than 100 µM in [4]; 84.5 µM and 53.8 µM and > 10 µM in [5]; 20.9 µM and 49.2 µM and > 6.49 µM in assay [6]; 74.1 µM and > 7.32 µM in [8].
For `c1ccc2c(NCCCCCCNc3c4ccccc4nc4ccccc34)c3ccccc3nc2c1`, the TGI was determined as 4.31 µM in assay [2]; 2.89 µM in assay [3]; 1.81 µM in assay [4]; 0.25 µM in [5]; 3.32 µM in assay [6]; 8.28 µM in assay [7]. Further, the TGI in assay [8] was found to be 2.08 µM; in assay [10] it was 3.54 µM.
Consider `N#Cc1ccc2c(c1)C(=O)c1c-2n(CCCCl)c(=O)c2cc([N+](=O)[O-])ccc12`, for which the GI50 in assay [1] is 41.1 µM; in assay [2] it was 5.29 µM; in [4], more than 100 µM; in assay [5], 3.44 µM; in assay [6], 2.28 µM; in [7], more than 100 µM. Moreover, the GI50 was 2.46 µM in [8], 3.95 µM in assay [9] and 9.1 µM in [10]. In addition, the TGI was more than 100 µM in [1]; 24.7 µM in assay [2]; more than 100 µM in assay [4]; 20.6 µM in assay [5]; 23.5 µM in assay [6]; more than 100 µM in assay [7]. Also, the TGI in assay [8] is 7.88 µM; in assay [9], 53.3 µM; in [10], 89.9 µM.
Consider `COC(=O)CC[C@]1(C)O[C@H]2[C@H]([C@@H](C)CCCC(C)=O)OC(=O)[C@@H]2C[C@H]1O`, for which the GI50 in assay [1], in assay [2], in assay [3], in [4], in assay [5] and in assay [6] was more than 100 µM each time. The GI50 in assay [7] was 44.9 µM; in assay [8], more than 100 µM; in assay [9], 39.4 µM. Further, the TGI in assay [1], in assay [2], in [3], in [4], in assay [5] and in [6] was more than 100 µM throughout. The concentration for total growth inhibition (TGI) in assay [7], in [8] and in assay [9] was more than 100 µM each time.
Take `C#CC1(OC(C)=O)CCC2C3CC=C4C=C(OC(C)=O)CCC4(C)C3CCC21C` (stereo not drawn): the TGI was 53.6 µM in [1]; more than 100 µM in assay [2]; more than 100 µM in assay [3]; 40.2 µM in assay [4]; 83.1 µM in assay [6]; 35.3 µM in assay [7]. Moreover, the TGI is 85.5 µM in assay [8], 35.9 µM in assay [9] and 63 µM in [10].
As for `Cc1cc(=O)oc2c(C)c(O)ccc12`, the TGI in assay [1], in assay [3], in [4], in [5], in assay [6] and in assay [7] was more than 100 µM each time. Further, the TGI in [8], in assay [9] and in assay [10] was more than 100 µM each time.
Consider `C[C@]12CCC(=O)C(O)=C1CC[C@@H]1C2CC[C@]2(C)NC(=O)CCC12` (stereo partly drawn), for which the TGI in assay [1], in [2], in [3], in assay [4], in assay [5] and in [7] was more than 100 µM throughout. In addition, the TGI in [8], in [9] and in [10] was more than 100 µM in each case.
With `CN(C)CCNC(=O)c1cccc2nc3cc(Cl)ccc3nc12`, the TGI was 8.27 µM in assay [1]; more than 40.3 µM in assay [2]; more than 26.7 µM in assay [3]; 15.2 µM in [4]; 31.6 µM in assay [5]; 8.69 µM in assay [7]. Besides, the TGI is more than 31 µM in [8], more than 50.6 µM in assay [9] and 5.14 µM in assay [10].
Take `O=S(=O)(NCCCNc1nccc(-c2c(-c3ccc(F)c(O)c3)nc3sccn23)n1)c1ccc(F)cc1`: the GI50 in assay [1] was 0.104 µM; in assay [2], 2.22 µM; in [3] it was 3.02 µM; in [4] it was 2.67 µM; in assay [6], 1.84 µM; in [7] it was 0.262 µM. Also, the values for the GI50 in [8], in assay [9] and in assay [10] were 3.35 µM, 1.51 µM and 2.38 µM, respectively. Further, the total growth inhibition concentration (TGI) in assay [1] was more than 100 µM; in assay [2], 7.01 µM; in [3], 47.1 µM; in assay [4], 8.36 µM; in [6], 7.14 µM; in [7] it was 2.19 µM. The TGI in assay [8] is more than 100 µM; in assay [9], 5.88 µM; in [10], 6.98 µM.
As to `COC(=O)c1cc2c3ccccc3n3c(=O)c4cc5ccccc5nc4c(n1)c23`, the GI50 in assay [1], in assay [2], in assay [3], in [4], in [6] and in [7] was more than 100 µM throughout. Further, the GI50 in [8], in assay [9] and in assay [10] was more than 100 µM in each case. Moreover, the TGI in [1], in [2], in assay [3], in assay [4], in assay [6] and in [7] was more than 100 µM each time. Moreover, the TGI in assay [8], in [9] and in assay [10] was more than 100 µM throughout.
In the case of `CC(=O)CC(N)=O`, the TGI in assay [1], in assay [2], in [3], in [4], in assay [5] and in [7] was more than 100 µM each time. The TGI in assay [8], in assay [9] and in assay [10] was more than 100 µM each time.

(Values after PubChem BioAssay (NCI).)
